Each compound was assayed against T1, human CCR6 (Homo sapiens, UniProt P51684) (assay: FLIPR assay (calcium flux, inhibition of CCL20 agonist response)). Conditions: HEK-293 cells expressing human CCR6; agonist CCL20 10 nM; 30 min preincubation; mean values if determined several times.
T1 construct: expressed in transfected cells; host or cells: HEK-293
T1 sequence (P51684 1-374): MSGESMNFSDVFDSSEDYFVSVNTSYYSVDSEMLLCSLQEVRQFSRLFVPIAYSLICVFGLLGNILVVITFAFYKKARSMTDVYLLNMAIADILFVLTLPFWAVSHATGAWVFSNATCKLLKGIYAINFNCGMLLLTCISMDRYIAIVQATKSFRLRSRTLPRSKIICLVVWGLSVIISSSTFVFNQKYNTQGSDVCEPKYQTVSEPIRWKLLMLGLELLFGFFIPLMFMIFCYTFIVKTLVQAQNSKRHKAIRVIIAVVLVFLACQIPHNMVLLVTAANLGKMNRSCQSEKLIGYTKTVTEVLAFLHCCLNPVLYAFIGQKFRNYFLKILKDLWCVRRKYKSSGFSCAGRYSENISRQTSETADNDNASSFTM
Assay type: cell-based
Description: FLIPR assay: The bioactivity of compounds is tested in a fluorometric imaging plate reader (FLIPR: Molecular Devices) using engineered HEK-293 cells expressing the human CCR6 (GenBank: AY242126). Frozen cells are plated on Poly-L-Lysine precoated 384-well plates 2 days prior to bioassay in DMEM medium supplemented with 10% FCS and 1% Penicillin-Streptomycin. At the day of bioassay, cell supernatant is discarded and cells are dye loaded for 30 minutes at room temperature in the dark with Fluo-8-AM (Focus Biomolecules) in Hanks Balanced Salt Solution (Gibco), buffered with 20 mM Hepes at pH 6.75 and supplemented with 0.05% BSA. This buffer, but lacking the dye, is also used for washing and compound dilution steps (assay buffer). Cells are washed free of excess dye with a wash-station (Biotek), leaving 40 microliter of assay buffer at the end. Cells were incubated for 15 minutes at room temperature in the dark, before adding compounds. Stock solutions of test compounds are made up at a concentration of 10 mM in DMSO, and serially diluted first in DMSO and then transferred in assay buffer to concentrations required for inhibition dose response curves. After a 45 minute incubation period in assay buffer at room temperature, 10 microliters of each compound dilution are transferred from a compound plate to the plate containing the recombinant cells in the FLIPR instrument according to the manufacturer's instructions. After cells and compounds were preincubated for 30 minutes at room temperature in the dark, 10 microliter agonist CCL20 (Peprotech) at a final concentration of 10 nM is added, again using the FLIPR instrument. Changes in fluorescence are monitored before and after addition of the test compounds and agonist. Emission peak values above base level after CCL20 addition are exported after base line subtraction. The calculated IC50 values may fluctuate depending on the daily assay performance. Fluctuations of this kind are known to those skilled in the art. In the case where IC50 values have been determined several times for the same compound, mean values are given.

In order of rising IC50:
1. CC(C)c1ccc([C@](O)(c2cncc(-c3noc(C45CCC(O)(CC4)CC5)n3)c2)C2(C)CN(C)C2)cc1 [Example 4, 4-(3-{5-[(R)-(1,3-Dimethyl-azetidin-3-yl)-hydroxy-(4-isopropyl-phenyl)-methyl]-pyridin-3-yl}-[1,2,4]oxadiazol-5-yl)-bicyclo[2.2.2]octan-1-ol]  23.9 nM
2. CC(C)c1ccc([C@](O)(c2cncc(C#C[C@H]3CC[C@@H](O)CC3)c2)C2(C)CN(C)C2)cc1 [Example 12, cis-4-{5-[(R)-(1,3-Dimethyl-azetidin-3-yl)-hydroxy-(4-isopropyl-phenyl)-methyl]-pyridin-3-ylethynyl}-cyclohexanol]  25.4 nM
3. CC(C)c1ccc([C@](O)(c2cncc(C#C[C@H]3CC[C@H](O)CC3)c2)C2(C)CN(C)C2)cc1 [Example 11, trans-4-{5-[(R)-(1,3-Dimethyl-azetidin-3-yl)-hydroxy-(4-isopropyl-phenyl)-methyl]-pyridin-3-ylethynyl}-cyclohexanol]  28.7 nM
4. CC(C)c1ccc([C@](O)(c2cncc(-c3noc(C45CCC(C(N)=O)(CC4)CC5)n3)c2)C2(C)CN(C)C2)cc1 [Example 13, 4-(3-{5-[(R)-(1,3-Dimethyl-azetidin-3-yl)-hydroxy-(4-isopropyl-phenyl)-methyl]-pyridin-3-yl}-[1,2,4]oxadiazol-5-yl)-bicyclo[2.2.2]octane-1-carboxylic acid amide]  37.5 nM
5. CC(C)c1ccc([C@](O)(c2cncc(-c3noc(C4CCC(C(N)=O)CC4)n3)c2)C2(C)CN(C)C2)cc1 (stereo partly drawn) [Example 14, 4-(3-{5-[(R)-(1,3-Dimethyl-azetidin-3-yl)-hydroxy-(4-isopropyl-phenyl)-methyl]-pyridin-3-yl}-[1,2,4]oxadiazol-5-yl)-cyclohexanecarboxylic acid amide]  46.3 nM
6. CC(=O)NC1CCC(c2nc(-c3cncc([C@@](O)(c4ccc(C(C)C)cc4)C4(C)CN(C)C4)c3)no2)CC1 (single isomer, unassigned) [Example 8, cis- or trans-N-[4-(3-{5-[(R)-(1,3-Dimethyl-azetidin-3-yl)-hydroxy-(4-isopropyl-phenyl)-methyl]-pyridin-3-yl}-[1,2,4]oxadiazol-5-yl)-cyclohexyl]-acetamide]  52.2 nM
7. CC(=O)NC12CC(c3nc(-c4cncc([C@@](O)(c5ccc(C(C)C)cc5)C5(C)CN(C)C5)c4)no3)(C1)C2 [Example 3, N-[3-(3-{5-[(R)-(1,3-Dimethyl-azetidin-3-yl)-hydroxy-(4-isopropyl-phenyl)-methyl]-pyridin-3-yl}-[1,2,4]oxadiazol-5-yl)-bicyclo[1.1.1]pent-1-yl]-acetamide]  55.7 nM
8. CN1CC(C)([C@](O)(c2ccc(CC(F)(F)F)cc2)c2cncc(-c3noc(C45CCC(C(N)=O)(CC4)CC5)n3)c2)C1 [Example 15, 4-[3-(5-{(R)-(1,3-Dimethyl-azetidin-3-yl)-hydroxy-[4-(2,2,2-trifluoro-ethyl)-phenyl]-methyl}-pyridin-3-yl)-[1,2,4]oxadiazol-5-yl]-bicyclo[2.2.2]octane-1-carboxylic acid amide]  65.3 nM
9. CC(C)c1ccc([C@](O)(c2cncc(C#CC(C)(O)c3ccncn3)c2)C2(C)CN(C)C2)cc1 (single isomer, unassigned) [Example 10, (R)- or (S)-4-{5-[(R)-(1,3-Dimethyl-azetidin-3-yl)-hydroxy-(4-isopropyl-phenyl)-methyl]-pyridin-3-yl}-2-pyrimidin-4-yl-but-3-yn-2-ol]  71.5 nM
10. CCC(=O)N[C@H]1CC[C@H](c2nc(-c3cncc([C@@](O)(c4ccc(C(C)C)cc4)C4(C)CN(C)C4)c3)no2)CC1 [Example 7, trans-N-[4-(3-{5-[(R)-(1,3-Dimethyl-azetidin-3-yl)-hydroxy-(4-isopropyl-phenyl)-methyl]-pyridin-3-yl}-[1,2,4]oxadiazol-5-yl)-cyclohexyl]-propionamide]  78.8 nM
11. CN1CC(C)([C@](O)(c2ccc(CC(F)(F)F)cc2)c2cncc(-c3noc([C@H]4CC[C@H](O)CC4)n3)c2)C1 [Example 1, trans-4-[3-(5-{(R)-(1,3-Dimethyl-azetidin-3-yl)-hydroxy-[4-(2,2,2-trifluoro-ethyl)-phenyl]-methyl}-pyridin-3-yl)-[1,2,4]oxadiazol-5-yl]-cyclohexanol]  83 nM
12. CC(=O)N1CC2(CC(c3nc(-c4cncc([C@@](O)(c5ccc(C(C)C)cc5)C5(C)CN(C)C5)c4)no3)C2)C1 [Example 6, 1-[6-(3-{5-[(R)-(1,3-Dimethyl-azetidin-3-yl)-hydroxy-(4-isopropyl-phenyl)-methyl]-pyridin-3-yl}-[1,2,4]oxadiazol-5-yl)-2-aza-spiro[3.3]hept-2-yl]-ethanone]  111 nM
13. CN1CC(C)([C@](O)(c2ccc(CC(F)(F)F)cc2)c2cncc(-c3noc(C45CC(CO)(C4)C5)n3)c2)C1 [Example 2, (R)-(1,3-Dimethyl-azetidin-3-yl)-{5-[5-(3-hydroxymethyl-bicyclo[1.1.1]pent-1-yl)-[1,2,4]oxadiazol-3-yl]-pyridin-3-yl}-[4-(2,2,2-trifluoro-ethyl)-phenyl]-methanol]  140 nM
14. CN1CC(C)([C@](O)(c2ccc(CC(F)(F)F)cc2)c2cncc(-c3nc(C(C)(C)CO)no3)c2)C1 [Example 5, 2-[5-(5-{(R)-(1,3-Dimethyl-azetidin-3-yl)-hydroxy-[4-(2,2,2-trifluoro-ethyl)-phenyl]-methyl}-pyridin-3-yl)-[1,2,4]oxadiazol-3-yl]-2-methyl-propan-1-ol]  144 nM
15. CN1CC(C)([C@](O)(c2ccc(CC(F)(F)F)cc2)c2cncc(-c3nc(C45CC(CO)(C4)C5)no3)c2)C1 [Example 9, (R)-(1,3-Dimethyl-azetidin-3-yl)-{5-[3-(3-hydroxymethyl-bicyclo[1.1.1]pent-1-yl)-[1,2,4]oxadiazol-5-yl]-pyridin-3-yl}-[4-(2,2,2-trifluoro-ethyl)-phenyl]-methanol]  146 nM
16. CC(=O)N[C@H]1CC[C@H](c2nc(-c3cncc([C@@](O)(c4ccc(CC(F)(F)F)cc4)C4(C)CN(C)C4)c3)no2)CC1 [Example 16, N-{4-[3-(5-{(R)-(1,3-Dimethyl-azetidin-3-yl)-hydroxy-[4-(2,2,2-trifluoro-ethyl)-phenyl]-methyl}-pyridin-3-yl)-[1,2,4]oxadiazol-5-yl]-trans-cyclohexyl}-acetamide]  226 nM

From US20250011313A1, “CCR6 RECEPTOR MODULATORS” (Idorsia Pharmaceuticals Ltd, priority 2021, published 2025)
